Earlier results on two compounds are cited in patent US8168440B2, “Polymeric sulfated surfactants for capillary electrophoresis (CE) and CE-mass spectrometry (CE-MS)” (Georgia State University, priority 2006, dated 2012).

Structures are written as SMILES.

For data set [1] the following is noted: in vivo.

With `CC(Oc1ccccc1Cl)C(=O)O` (racemic) [(±)-2-PPA, 2-(2-chlorophenoxy)propionic acid], the pKa was 3.11±0.1.

Consider `CN[C@@H](C)[C@@H](O)c1ccccc1` (racemic) [(±)-pseudoephedrine, pseudoephedrine], for which, in data set [1], the “Part of the dosage taken excreted in the urine” value was “about one-half” and the Serum half-life is 5 to 8 h.

A word on the pKa: it is the pH at which an ionisable group is half protonated.
